Here are results for three compounds from patent US6750228B1, “Aromatic sulfone hydroxamic acid metalloprotease inhibitor” (priority 1997, dated 2004).

Molecules are shown by their SMILES.

Data set [1] deals with T1, MMP-1 (Homo sapiens, UniProt P03956).
T1 construct: made in house; host or cells: transfected HT-1080 cells (provided by Dr. Harold Welgus, Washington University)
T1 sequence (P03956 100-469): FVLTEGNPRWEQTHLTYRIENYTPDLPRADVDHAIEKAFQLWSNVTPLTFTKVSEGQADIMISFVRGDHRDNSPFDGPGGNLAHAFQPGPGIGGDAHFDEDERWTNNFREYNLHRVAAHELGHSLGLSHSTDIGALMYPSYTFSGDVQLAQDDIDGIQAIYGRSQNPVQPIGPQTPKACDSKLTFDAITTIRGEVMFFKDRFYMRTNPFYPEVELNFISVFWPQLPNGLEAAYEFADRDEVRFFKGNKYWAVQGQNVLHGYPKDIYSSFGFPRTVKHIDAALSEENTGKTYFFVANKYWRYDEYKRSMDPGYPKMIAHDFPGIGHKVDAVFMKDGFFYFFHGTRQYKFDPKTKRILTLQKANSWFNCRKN
Description: biochemical. To be noted: recombinant human MMP-1, MCA peptide substrate 4 μM, pH 7.5, room temperature; read-out: MMP-1 IC50. In short, it runs like this: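 APMA- or trypsin-activated human MMPs (MMP-1 from transfected HT-1080 cells, MMP-2 from transfected cells) preincubated with inhibitor in 1% DMSO at room temperature, then 4 μM MCA-Pro-Leu-Gly-Leu-Dpa-Ala-Arg-NH2 added in Tris/NaCl/CaCl2 buffer pH 7.5. IC50 from fluorescence reduction versus inhibitor concentration.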

Data set [2] has as its target T2, MMP-13 (Homo sapiens, UniProt P45452).
T2 construct: made in house; host or cells: baculovirus / insect cells
The data set is described as follows: biochemical. To be noted: recombinant human MMP-13, MCA peptide substrate 4 μM, pH 7.5, room temperature; read-out: MMP-13 IC50. In short, it runs like this: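 APMA- or trypsin-activated enzymes were preincubated with inhibitor for 5 min at room temperature, then the fluorogenic substrate MCA-Pro-Leu-Gly-Leu-Dpa-Ala-Arg-NH2 was added to a final 4 μM.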

For data set [3], the target named is T3, MMP-2 (Homo sapiens, UniProt P08253).
T3 construct: made in house; provided by Dr. Gregory Goldberg, Washington University
T3 sequence (P08253 110-660): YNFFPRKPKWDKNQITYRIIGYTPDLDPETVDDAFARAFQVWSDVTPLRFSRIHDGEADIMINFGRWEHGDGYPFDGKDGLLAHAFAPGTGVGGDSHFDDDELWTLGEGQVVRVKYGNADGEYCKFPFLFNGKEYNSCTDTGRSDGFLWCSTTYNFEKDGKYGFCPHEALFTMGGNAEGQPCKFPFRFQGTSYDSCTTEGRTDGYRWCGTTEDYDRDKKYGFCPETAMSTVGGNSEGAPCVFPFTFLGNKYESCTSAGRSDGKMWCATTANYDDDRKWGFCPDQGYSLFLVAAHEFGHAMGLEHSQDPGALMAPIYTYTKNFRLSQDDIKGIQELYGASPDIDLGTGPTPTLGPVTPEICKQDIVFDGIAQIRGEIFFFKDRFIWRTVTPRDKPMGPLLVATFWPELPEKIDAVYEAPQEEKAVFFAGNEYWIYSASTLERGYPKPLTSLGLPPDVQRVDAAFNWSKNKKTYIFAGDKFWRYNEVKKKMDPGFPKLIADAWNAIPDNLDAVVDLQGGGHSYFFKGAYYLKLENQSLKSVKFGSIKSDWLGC
The data set is described as follows: biochemical. To be noted: recombinant human MMP-2, MCA peptide substrate 4 μM, pH 7.5, room temperature; read-out: MMP-2 IC50. The essentials:
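Assay buffer 100 mM Tris-HCl, 100 mM NaCl, 10 mM CaCl2, pH 7.5. Activated MMP + inhibitor, 5 min RT; then methoxycoumarin peptide substrate, 4 μM final. Readout fluorescence; IC50 calculated.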

Data set [4] addresses T4, MMP-7 (Homo sapiens, UniProt P09237).
T4 construct: made in house; host or cells: E. coli (clone a gift of Dr. Steven Shapiro, Washington University)
T4 sequence (P09237 95-267): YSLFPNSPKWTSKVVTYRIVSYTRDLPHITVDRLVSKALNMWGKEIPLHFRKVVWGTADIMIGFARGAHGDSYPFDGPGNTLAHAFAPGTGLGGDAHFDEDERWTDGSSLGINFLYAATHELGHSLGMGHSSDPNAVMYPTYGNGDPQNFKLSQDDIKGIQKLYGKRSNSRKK
Description: In vitro metalloprotease inhibition, pH 7.5 with 0.02% 2-mercaptoethanol. The settings on record: selectively inhibit one or more of MMP-2, MMP-9 and MMP-13. The data set is classed as biochemical. As to the method:
The compounds prepared in the manner described in the Examples above were assayed for activity by an in vitro assay. […] Briefly, 4-aminophenylmercuric acetate (APMA) or trypsin-activated MMPs were incubated with various concentrations of the inhibitor compound at room temperature for 5 minutes.
MMP-1 expressed in transfected HT-1080 cells was provided by Dr. Harold Welgus of Washington University, St. Louis, Mo. The enzyme was also activated using APMA and was then purified over a hydroxamic acid column. Dr. Welgus also provided transfected HT-1080 cells that expressed MMP-9. Transfected cells that expressed MMP-2 were provided by Dr. Gregory Goldberg, also of Washington University. Studies with MMP-7 were carried out at pH 7.5 in the presence of 0.02% 2-mercaptoethanol using conditions otherwise similar to those used for the other enzymes. […]
In the absence of inhibitor activity, a fluorogenic peptide was cleaved at the gly-leu peptide bond, separating the highly fluorogenic peptide from a 2,4-dinitrophenyl quencher, resulting in an increase of fluorescence intensity (excitation at 328 nm/emission at 415 nm). Inhibition was measured as a reduction in fluorescent intensity as a function of inhibitor concentration, using a Perkin Elmer L550 plate reader. The IC50 values were calculated from those values. […]

In data set [5] the test system is advanced, rapidly progressive, treatment-refractory solid tumor cancers. The settings on record: cited from earlier work.

Regarding `N#Cc1cccc(S(=O)(=O)N2CCN(c3ccc(S(=O)(=O)C4(C(=O)NO)CCOCC4)cc3)CC2)c1` [Example 672], the figures for the IC50 in data set [1], in data set [2] and in data set [3] were more than 10000 nM, 6.7 nM and 60 nM, respectively. Moreover, the “inhibition of MMP-7 compared with MMP-2, MMP-9 and MMP-13 (selectivity)” value in data set [4] is given as “substantially less inhibition”.
Take `Cn1cnc(S(=O)(=O)N2CCN(c3ccc(S(=O)(=O)C4(C(=O)NO)CCOCC4)cc3)CC2)c1` [Example 684]: the half-inhibitory concentration (IC50) in data set [1] is more than 10000 nM; in data set [2], 60 nM; in data set [3], 1450 nM. Further, the “inhibition of MMP-7 compared with MMP-2, MMP-9 and MMP-13 (selectivity)” value in data set [4] is listed as “substantially less inhibition”.
With `CNC(=O)[C@@H](NC(=O)[C@H](CC(C)C)[C@H](O)C(=O)NO)C(C)(C)C` [marimastat, Marimastat], the “most common drug-related toxicity” value in data set [5] (clinical trials in patients) is “musculoskeletal pain and stiffness”. The “cancer-specific antigens used as surrogate markers for biological activity” value in data set [5] (patients with colorectal, pancreatic, ovarian, prostate cancers) is listed as “dose-related reduction in the rise of cancer-specific antigens”.
